This note sets out measurements from patent US20240246957A1, “Diazepane Derivatives, Processes for their Preparation, and Uses thereof for the Amelioration, Prevention and/or Treatment of Mental and Neurological Diseases” (2N Pharma ApS, priority 2021, published 2024).

Molecules are shown by their SMILES.

For one test, the system named is HEK293 cells. Description: Fatty acid uptake assay using HEK293 cells. The test is classed as cell-based. The settings on record: Homo sapiens, CPT1 inhibitor, racemic mixture, FIG. 1. The protocol: HEK293 cells were thawed and centrifuged at 400 g in 1 min, whereafter the supernatant was discarded. The cells were resuspended in DMEM+GlutaMax medium (cat #10566016, Invitrogen) containing 10% fetal calf serum (cat #10270-106, Invitrogen) and 1% penicillin/streptomycin (cat #15140-122, Life Technologies). HEK293 cells were seeded into a T25 flask and incubated at 37 degrees Celsius until 80% confluency. When the HEK293 cells reached confluency, cells were counted and seeded in a 96-well plate and with a volume of 10.000 cells/well in medium (as described above) and incubated overnight. Three wells were without cells serving as controls.
The cells were divided into two groups: 1) Example 1, and 2) Untreated. The fatty acid uptake assay (cat #408-100, BioVision) was carried out according to the protocol from BioVision. The only exception to the protocol was that the measurements in the PerkinElmer Multimode Plate Reader Enspire instrument was running overnight.
Statistics was performed in GraphPad Prism version 8.0. Repeated measure two-way ANOVA were conducted as the groups were tested multiple times followed by a multiple comparison Bonferroni post hoc test.

The next test deals with SOD1 G93A mice. Kind of test: Efficacy study (survival) in SOD1 G93A mouse model of ALS. Type of test: in vivo. The settings on record: compared to vehicle, Edaravone and Riluzole, survival = neurological score below 4, FIG. 2. As to the method: All experiments were approved by the Danish Animal Experiment Inspectorate (2017-15-0202-00088) and followed the National and European guidelines for conducting animal experiments. Animal experiments was conducted according to the ARRIVE guidelines. Mice were housed in IVC cages in a high barrier facility at Aalborg University, Denmark with a room temperature of 21° C. The mice were kept at a 12-hour light/dark cycle and had ad libitum access to food and water.
B6.Cg-Tg(SOD1*G93A)1Gur/J mice (Stock #004435) (SOD1) were purchased from Jackson Laboratory (Bar Harbor, USA). The congenic SOD1 mice were maintained in our animal facility by crossing hemizygote SOD1 male mice with female C57BI/6J mice. Litters were genotyped according to established protocol using DNA extracted from ear tissue punches. Male SOD1 mice were used to maintain the colony, and SOD1 female and their wildtype littermates were used for experiments. All animals were assessed for human endpoints daily, weight twice a week, and neurological score once a week. SOD1 females (n=4) were evaluated at baseline and day 128 for cylinder, dark-light and y-maze tests, and at baseline and day 142 by neurological score, grip strength, hangwire test and rotarod. […] In addition, survival was evaluated as described under neurological score, onset of disease and survival analysis.
Mice were evaluated by the same experimenter weekly. […]

For orientation: IC50 means the concentration that inhibits the measured activity by half. In the case of `CC(=O)N1CCC(c2nc(-c3ccncc3)cs2)N(C(=O)COc2ccccc2)CC1` (single isomer, unassigned) [Example 1, 1-(4-acetyl-7-(4-(pyridin-4-yl)thiazol-2-yl)-1,4-diazepan-1-yl)-2-phenoxyethan-1-one], in the test with HEK293 cells, the IC50 amounted to 0.3 µM.
Consider `CC(=O)N1CCC(c2nc(-c3ccncc3)cs2)N(C(=O)COc2ccccc2)CC1` (single isomer, unassigned) [Example 1-E1], for which the survival entry in the test on SOD1 G93A mice was “improved survival”.
As for `CC(=O)N1CCC(c2nc(-c3ccncc3)cs2)N(C(=O)COc2ccccc2)CC1` (single isomer, unassigned) [Example 1-E2], the survival result in the test on SOD1 G93A mice is on record as “improved survival”.
